“Also recorded” adds a separate entry of the source.
Legend:
isolated pDC = assay: IFN-alpha production upon isolated pDC stimulation; assay type: cell-based, human; details: 0.5 μM ORN complexed to 10 μg/ml DOTAP, 16 h
Description: FIG. 2 is a set of bar graphs depicting ORN induced cytokine production upon isolated pDC (FIG. 2a), monocytes (FIG. 2b) and mDC (FIG. 2c) stimulation. Cells were stimulated with 0.5 μM ORN complexed to 10 μg/ml DOTAP, 0.5 μM CpG ODN or DOTAP or media alone and IFN-alpha (FIG. 2a), TNF-alpha […] and IL-12p40 (FIG. 2c) were measured.
A similar assay testing different ORN sequences was performed using isolated pDC, monocytes and mDC stimulation. Cells were stimulated with 0.5 μM ORN complexed to 10 μg/ml DOTAP, 0.5 μM CpG ODN or DOTAP or media alone. After 16 h the supernatants were harvested and IFN-alpha, TNF-alpha and IL-12p40 levels were measured by ELISA.

[1] = tested on: Raw264.7 cells, J774 cells, purified mouse CD11c+ cells; assay: Cytokine production by mouse cells in vitro (ELISA); assay type: cell-based; details: ORN complexed to DOTAP, 16 or 20 hours
Description: (§1) Cells used were mouse macrophage cell line Raw264.7 cells (FIG. 12a), J774 cells (FIG. 12b), purified mouse CD11c+ cells (sv129 mice) (FIGS. 12c-12h) and mouse cells in vivo. Cytokine concentration was evaluated by ELISA.
(§2) Raw264.7 cells (FIG. 12a), J774 cells (FIG. 12b) and purified CD11c+ cells (Milteny, magnetic bead labeling) were isolated from sv129 mice splenocytes (FIGS. 12c-12e) and were stimulated with indicated concentrations of ORN complexed to DOTAP (50 μg/ml and diluted with ORN), R-848 or DOTAP alone (50 μg/ml). After 16 hours (FIGS. 12a and 12b) or 20 hours (FIGS. 12c-12e) supernatants were harvested and used for TNF-alpha (FIGS. 12a and 12b), IL-12p40 (FIG. 12c), IFN-alpha (FIG. 12d) and IP-10 (FIG. 12e) ELISA. Data represent one individual from at least three experiments (FIGS. 12a and 12b) and mean of 3 mice (FIGS. 12c-12e). To measure the ability of AU-rich ORN to stimulate mouse cells in vivo, sv129 mice (n=5/group) were injected with the indicated amounts of ORN formulated with DOTAP (60, 20 or 6 μg/ml), and bled after 3 hours. IL-12p40 (FIG. 12f), IFN-alpha (FIG. 12g) and IP-10 (FIG. 12h) production was measured within whole blood by ELISA.

sv129 mice = assay: Cytokine production in sv129 mice in vivo (whole blood ELISA, 3 hours); parameters: species or system mouse; details: ORN formulated with DOTAP, bled after 3 hours
Description: as §1, §2

## U*U*A*U*U*A*U*U*A*U*U*A*U*U*A*U*U*A*U*U (UUAUUAUUAUUAUUAUUAUU; chemistry not fully specified) [SEQ ID NO: 13]
Isolated pDC
  IFN-alpha production upon pDC stimulation (in words): strongly reduced IFN-alpha production; also recorded: no IFN-alpha cytokine production
[1]
  response of mouse macrophages/cells in vitro (TNF-alpha, IL-12p40, IFN-alpha, IP-10): do not Respond
sv129 mice
  response of mouse cells in vivo (IL-12p40, IFN-alpha, IP-10 in whole blood): do not Respond

From patent US8354522B2, “Immunostimulatory oligoribonucleotides” (Coley Pharmaceutical GmbH, priority 2005, dated 2013)
